{
  "source": "patent US20220332799A1",
  "about": "“HERV INHIBITORS FOR USE IN TREATING TAUOPATHIES” (Deutsches Zentrum Für Neurodegenerative Erkrankungen E.V. …, priority 2019, published 2022)",
  "key": {"[1]": {"tested_on": "HEK Tau-FusionRed^sol cells expressing murine XPR1-HA", "experiment": "Tau aggregate induction in recipient cells by EVs from N2a s2E Tau-GFP^CBD donor cells", "type": "cell-based, human", "details": "EVs from treated donors; recipients cultured in drug-containing medium, 3 d", "procedure": "To examine this effect on Tau aggregate spreading, an N2a s2E cell clone stably propagating aggregated Tau-GFP^CBD was produced (FIG. 11a). […]. Cells and EVs were analyzed for the presence of aggregated Tau-GFP. Pronase-resistant Tau-GFP was found in both cell lysate and EVs (FIG. 2q). To inhibit MuERV gene product maturation, donor cells were treated with Amprenavir for three days. Donor cells and donor cell-derived EVs were subsequently exposed for three days to recipient HEK cells expressing soluble Tau-FusionRed and the murine XPR1 receptor variant required for MuERV Env interaction. Due to this long incubation time, the coculture and EV induction assays were performed in the presence of Amprenavir (FIG. 11b). […]\nRecipient cells were cultured on CellCarrier-96 plates or 384 black microplates (PerkinElmer) at appropriate cell numbers for 1 h, and then treated with 5-10 μl of prepared samples (isolated EVs or recombinant NM fibrils). […] On average, a total of 3-4×10^4 cells per well and at least 3 wells per treatment were analyzed.\nThe treatment of cells with Amprenavir (10 μM; Santa Cruz) and DMSO was performed for 72 h in EV-depleted medium in T175 flasks. Afterwards, the total numbers of viable cells and the viability upon drug treatment were determined using the Vi-VELL™ XR Cell Viability Analyzer (Beckman Coulter). […]"}, "MuERV env and gag mRNA": {"tested_on": "MuERV env and gag mRNA", "experiment": "qRT-PCR of MuERV env and gag transcripts in donor clone s2E", "type": "cell-based, mouse", "details": "s2E P1 donors, Aza 200 nM or Dec 100 nM, then 5 days without drug, vs DMSO", "procedure": "To inhibit methyltransferases, s2E P1 donor cells were treated for three days with methyltransferase inhibitors 5-Azacytidine (Aza) 200 nM, Decitabine (Dec) 100 nM or DMSO as solvent control. Subsequently, the cells were cultured in the absence of the drugs for 5 days. Pre-treated donor cells were subsequently cocultured with recipient cells as described above to monitor aggregate induction efficiency in recipient N2a NM-GFP^sol cells. Cell lysates of donor cells were also analyzed for MuERV Env and Gag expression levels by western blot. To increase DNA methylation, the s2E donor clone (P21) was treated with methyl group donors L-methionine (L-M) 80 mM, Betaine (B) 80 mM, Choline chloride (CC) 20 mM or medium control for 6 days. MuERV Env and Gag protein levels were analyzed by western blot. Subsequently, cells were cocultured with recipient cells for 16 h. The percentage of aggregate containing recipient cells was compared to the percentage of aggregate bearing recipients cocultured with solvent-treated donors. […]\nTotal RNA from cell pellets or brain samples was isolated using the RNeasy Mini Kit or RNeasy Lipid Tissue Mini Kit (Qiagen). RNA concentration and quality were determined using the Agilent 2100 Bioanalyzer System. For a 20 μl reaction, 1 μg RNAs were reversely transcribed to cDNA using the iScript™ cDNA Synthesis Kit (Bio-Rad). For a 20 μl qRT-PCR reaction, 2 μl of synthesized cDNA was used as template. For qRT-PCR of murine env AA037244.2 and gag AID54952, custom designed TaqMan probes were used (Thermo Fisher Scientific). Pre-designed TaqMan probes by the company for murine pan-env, xpr1, mcat-1 and gapdh as housekeeping control and TaqMan™ Gene Expression Master Mix (Thermo Fisher Scientific) were used. qRT-PCR using TaqMan probes was performed as described in the manufacturer's instruction. For qRT-PCR analyses of HERV family members, primers were designed using the corresponding cDNA sequences (cf. SEQ ID NOs. 73-92). PowerUP SYBR™ Green Master Mix (Thermo Fisher Scientific) was mixed with different cDNAs and corresponding primers as indicated in the instruction. The fast cycling mode was used for all primers."}},
  "data": [
    {"compound": "CC(C)CN(C[C@@H](O)[C@H](Cc1ccccc1)NC(=O)O[C@H]1CCOC1)S(=O)(=O)c1ccc(N)cc1", "note": "[Amprenavir]", "values": [
      {"measurement": "Tau-FusionRed aggregate induction by EVs", "setting": "[1]", "value": "also decreased Tau-FusionRed aggregate induction in murine XPR1 expressing recipient cells"}
    ]},
    {"compound": "Nc1ncn([C@H]2C[C@H](O)[C@@H](CO)O2)c(=O)n1", "note": "[Decitabine, 5-aza-2′-deoxycytidine]", "values": [
      {"measurement": "expression of total env and gag mRNA", "setting": "MuERV env and gag mRNA", "value": "increased expression of total env and gag mRNA"},
      {"measurement": "expression of total env and gag mRNA", "setting": "MuERV env and gag mRNA; listed as 5-aza-2′-deoxycytidine", "value": "Increased expression of MuERV env (f), gag (h) and pan-env (g) transcripts"}
    ]}
  ]
}
